US8796292B2, “Selective antibacterials for clostridium difficile infections” (GLSynthesis Inc., priority 2009, dated 2014)
Values after ≈ are worked out from the molar mass of the structure shown. Where two headings read alike, the source gives them in different places.

Experiments:
Assay in all cases: agar dilution MIC assay of anaerobic bacteria
C. difficile = type: cell-based, Clostridium difficile; conditions: Clostridioides difficile, read-out: MIC
Summary of the method: (§1)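 Frozen isolates were subcultured anaerobically on Supplemented Brucella Agar, then inoculated onto manually prepared drug-supplemented agar plates. These were incubated 48 hours at 35° C. under 5% hydrogen, 5% carbon dioxide and 90% nitrogen, and MIC was recorded in μg/ml.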

Ba. fragilis = type: cell-based; conditions: Bacteroides fragilis
Summary of the method: as §1

L. acidophilus = type: cell-based; conditions: Lactobacillus acidophilus
Summary of the method: as §1

Bi. longum = type: cell-based, Bifidobacterium longum
Summary of the method: as §1

L. casei = type: cell-based, Lactobacillus casei; conditions: Lacticaseibacillus casei
Summary of the method: as §1

Bi. brevi = type: cell-based, Bifidobacterium brevi
Summary of the method: as §1

E. lentum = type: cell-based, Eubacterium lentum
Summary of the method: as §1

Cc1ncc([N+](=O)[O-])n1CCO [metronidazole, reference compound]
MIC (C. difficile; C. diff. Strain no. 18285, Table 4): 2 µg/mL (≈ 11.7 µM) | MIC (C. difficile; C. diff. Strain no. 19265, Table 4): 0.5 µg/mL (≈ 2.92 µM) | MIC (C. difficile; C. diff. Strain no. 19273, Table 4): 0.25 µg/mL (≈ 1.46 µM) | MIC (C. difficile; C. diff. Strain no. 19281, Table 4): 0.5 µg/mL (≈ 2.92 µM) | MIC (C. difficile; C. diff. Strain no. 19291, Table 4): 0.5 µg/mL (≈ 2.92 µM) | MIC (C. difficile; C. diff. Strain no. 19369, Table 4): 0.5 µg/mL (≈ 2.92 µM) | MIC (C. difficile; C. diff. Strain no. 19382, Table 4): 0.5 µg/mL (≈ 2.92 µM) | MIC (C. difficile; C. diff. Strain no. 19540, Table 4): 4 µg/mL (≈ 23.4 µM) | MIC (C. difficile; C. diff. Strain no. 19580, Table 4): 2 µg/mL (≈ 11.7 µM) | MIC (C. difficile; C. diff. Strain no. 19680, Table 4): 4 µg/mL (≈ 23.4 µM) | MIC (C. difficile; C. diff. Strain no. 19681, Table 4): 1 µg/mL (≈ 5.84 µM) | MIC (C. difficile; C. diff. Strain no. 19683, Table 4): 2 µg/mL (≈ 11.7 µM) | MIC (C. difficile; C. diff. Strain no. 19687, Table 4): 4 µg/mL (≈ 23.4 µM) | MIC (C. difficile; C. diff. Strain no. 20066, Table 4): 4 µg/mL (≈ 23.4 µM) | MIC (C. difficile; C. diff. Strain no. 20152, Table 4): 1 µg/mL (≈ 5.84 µM) | MIC (C. difficile; C. diff. Strain no. 20307, Table 4): 0.5 µg/mL (≈ 2.92 µM) | MIC (C. difficile; C. diff. Strain no. 20494, Table 4): 1 µg/mL (≈ 5.84 µM) | MIC (C. difficile; C. diff. Strain no. 20680, Table 4): 4 µg/mL (≈ 23.4 µM) | MIC (C. difficile; C. diff. Strain no. 20934, Table 4): 1 µg/mL (≈ 5.84 µM) | MIC (C. difficile; C. diff. Strain no. 21099, Table 4): 2 µg/mL (≈ 11.7 µM) | MIC (C. difficile; C. diff., Micromyx Number 3579, Table 2): 0.5 µg/mL (≈ 2.92 µM) | MIC (C. difficile; C. diff., Micromyx Number 3580, Table 2): 0.5 µg/mL (≈ 2.92 µM) | MIC (C. difficile; C. diff., Micromyx Number 3581, Table 2): 0.5 µg/mL (≈ 2.92 µM) | MIC (C. difficile; C. diff., Micromyx Number 3582 (ATCC strain), Table 2): 0.5 µg/mL (≈ 2.92 µM) | MIC (C. difficile; C. diff., Strain no. 3580, Table 3): 1 µg/mL (≈ 5.84 µM) | MIC (C. difficile; C. diff., Strain no. 3581, Table 3): 1 µg/mL (≈ 5.84 µM) | MIC (C. difficile; C. diff., Strain no. 3582, Table 3): 0.5 µg/mL (≈ 2.92 µM) | MIC (C. difficile; C. diff., Strain no. 3584, Table 3): 0.5 µg/mL (≈ 2.92 µM) | MIC (C. difficile; C. diff., Strain no. 3585, Table 3): 1 µg/mL (≈ 5.84 µM) | MIC (C. difficile; C. diff., Strain no. 3586, Table 3): 0.12 µg/mL (≈ 0.701 µM) | MIC (C. difficile; C. diff., Strain no. 3587, Table 3): 1 µg/mL (≈ 5.84 µM) | MIC (C. difficile; C. diff., Strain no. 3588, Table 3): 0.5 µg/mL (≈ 2.92 µM) | MIC (C. difficile; C. diff., Strain no. 3589, Table 3): 2 µg/mL (≈ 11.7 µM) | MIC (C. difficile; C. diff., Strain no. 4381 (ATCC strain), Table 3): 0.5 µg/mL (≈ 2.92 µM) | MIC (C. difficile; C. difficile, Micromyx Number 1209, Table 1): 0.5 µg/mL (≈ 2.92 µM) | MIC (C. difficile; C. difficile, Micromyx Number 3579, Table 1): 0.25 µg/mL (≈ 1.46 µM) | MIC (C. difficile; C. difficile, Micromyx Number 3580, Table 1): 0.5 µg/mL (≈ 2.92 µM) | MIC (C. difficile; C. difficile, Micromyx Number 3581, Table 1): 1 µg/mL (≈ 5.84 µM) | MIC (C. difficile; C. difficile, Micromyx Number 3582, Table 1): 0.25 µg/mL (≈ 1.46 µM) | MIC (C. difficile; C. difficile, Micromyx Number 3584, Table 1): 0.5 µg/mL (≈ 2.92 µM) | MIC (C. difficile; C. difficile, Micromyx Number 3585, Table 1): 0.5 µg/mL (≈ 2.92 µM) | MIC (C. difficile; C. difficile, Micromyx Number 3586, Table 1): 0.5 µg/mL (≈ 2.92 µM) | MIC (C. difficile; C. difficile, Micromyx Number 3587, Table 1): 1 µg/mL (≈ 5.84 µM) | MIC (C. difficile; C. difficile, Micromyx Number 3588, Table 1): 0.5 µg/mL (≈ 2.92 µM) | MIC (C. difficile; C. difficile, Micromyx Number 3589, Table 1): 1 µg/mL (≈ 5.84 µM) | MIC (C. difficile; C. difficile, Micromyx Number 3590, Table 1): 0.5 µg/mL (≈ 2.92 µM) | MIC (C. difficile; C. difficile, Micromyx Number 3591, Table 1): 0.5 µg/mL (≈ 2.92 µM) | MIC (C. difficile; C. difficile, Micromyx Number 3593, Table 1): 0.5 µg/mL (≈ 2.92 µM) | MIC (C. difficile; C. difficile, Micromyx Number 3594, Table 1): 1 µg/mL (≈ 5.84 µM) | MIC (C. difficile; C. difficile, Micromyx Number 3595, Table 1): 1 µg/mL (≈ 5.84 µM) | MIC (C. difficile; C. difficile, Micromyx Number 4381 (ATCC strain), Table 1): 0.5 µg/mL (≈ 2.92 µM) | MIC (Ba. fragilis; B. fragilis, Micromyx Number 0123 (ATCC strain), Table 2): 0.5 µg/mL (≈ 2.92 µM) | MIC (Ba. fragilis; B. fragilis, Strain no. 0123 (ATCC strain), Gram-negative (control), Table 3): 0.5 µg/mL (≈ 2.92 µM) | MIC (Ba. fragilis; Ba. fragilis, Micromyx Number 0123 (ATCC strain), Gram negative, Table 1): 1 µg/mL (≈ 5.84 µM) | MIC (L. acidophilus; Micromyx Number 0681, Table 1): > 16 µg/mL | MIC (L. acidophilus; Strain no. 0681, Table 3): > 32 µg/mL | MIC (Bi. longum; Bi. Longum, Strain no. 3968 (ATCC strain), Table 3): 4 µg/mL (≈ 23.4 µM) | MIC (Bi. longum; Bifidobacterium longum, Bi. longum, Micromyx Number 3968, Table 1, read-out: MIC): 4 µg/mL (≈ 23.4 µM) | MIC (L. casei; Micromyx Number 1722, Table 1): > 16 µg/mL | MIC (L. casei; Strain no. 1722 (ATCC strain), Table 3): > 32 µg/mL | MIC (Bi. brevi; Bifidobacterium breve, Bi. Breve, Strain no. 3967 (ATCC strain), Table 3): 4 µg/mL (≈ 23.4 µM) | MIC (Bi. brevi; Bifidobacterium, Bi. brevi, Micromyx Number 3967, Table 1): > 16 µg/mL | MIC (E. lentum; Eggerthella lenta, E. lentum, Micromyx Number 1274, Table 1, read-out: MIC): 0.5 µg/mL (≈ 2.92 µM) | MIC (E. lentum; Eu. Lentum, Strain no. 1274 (ATCC strain), Table 3): 0.5 µg/mL (≈ 2.92 µM)
